Read-outs that look alike come from different tables or passages of the source.
Legend:
Test in all cases: PTP IC50 assay, pNPP or FDP as substrate
Format in all cases: biochemical
[1] = target: T1, PTP 1B (Homo sapiens, UniProt P18031)
T1 construct: made in house; host or cells: Sf-9 insect cells (pFastBac-G2T)
T1 sequence (P18031 1-435): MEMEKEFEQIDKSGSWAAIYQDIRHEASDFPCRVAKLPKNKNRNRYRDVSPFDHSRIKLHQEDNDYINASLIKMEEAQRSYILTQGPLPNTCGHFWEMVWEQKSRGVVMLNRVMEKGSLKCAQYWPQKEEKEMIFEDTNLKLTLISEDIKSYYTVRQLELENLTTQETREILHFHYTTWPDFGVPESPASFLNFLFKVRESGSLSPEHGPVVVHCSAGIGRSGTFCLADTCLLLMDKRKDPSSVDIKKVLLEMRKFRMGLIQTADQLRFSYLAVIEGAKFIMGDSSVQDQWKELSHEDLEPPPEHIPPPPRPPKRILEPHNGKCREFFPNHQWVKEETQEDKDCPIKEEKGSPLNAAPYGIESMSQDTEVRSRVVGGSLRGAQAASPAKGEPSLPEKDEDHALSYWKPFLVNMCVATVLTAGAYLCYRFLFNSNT
Protocol: (§1) The following in vitro assay procedure is preferred to determine the level of activity and effect of the different compounds of the present invention on one or more of the PTPs. Similar assays can be designed along the same lines for any PTP using techniques well known in the art.
(§2) The catalytic assays described herein are performed in a 96-well format. The general procedure begins with the determination of PTP optimal pH using a three-component buffer system that minimizes ionic strength variations across a wide range of buffer pH. Next, the Michaelis-Menten constant, or Km, is determined for each specific substrate-PTP system. This Km value is subsequently used as the substrate reaction concentration for compound screening. Finally, the test PTP is exposed to varying concentrations of compound for fifteen minutes and allowed to react with substrate for ten minutes. The results are plotted as percent inhibition versus compound concentration and the IC50 interpolated from the plot.
(§3) All assays were performed using pNPP or FDP as substrate. The optimum pH was determined for each PTP used.
(§4) PTPase activity was assayed at 25° C. in a 100-μl reaction mixture containing an appropriate concentration of pNPP or FDP as substrate. The reaction was initiated by addition of the PTP and quenched after 10 min by addition of 50 μl of IN NaOH. The non-enzymatic hydrolysis of the substrate was corrected by measuring the control without the addition of the enzyme. The amount of p-nitrophenol produced was determined from the absorbance at 410 nm. To determine the kinetic parameter, Km, the initial velocities were measured at various substrate concentrations and the data were fitted to the Michaelis equation where velocity=(Vmax*[S])/(Km+[S]), and [S]=substrate reaction concentration.
(§5) The effect of the compounds on PTP was evaluated at 25° C. using pNPP or FDP as substrate. PTP was pre-incubated for fifteen minutes with various concentrations of compound. Substrate was then added at a fixed concentration (usually equal to the Km previously calculated). After 10 minutes, NaOH was added to stop the reaction. The hydrolysis of pNPP was followed at 410 nm on the Biotek Powerwave 200 microplate scanning spectrophotometer. The percent inhibition was calculated as follows: Percent Inhibition=[(control signal−compound signal)/control signal] ×100%. The IC50 was then determined by interpolation of a percent inhibition versus compound concentration plot.
(§6) Plasmids designed for bacterial GST-PTP fusion protein expression were derived by insertion of PCR-generated human PTP fragments into pGEX vectors (Pharmacia Biotech). Several of these constructs were then used to subclone phosphatases into pFastBac-1for expression in Sf-9 insect cells. Oligonucleotides used for the initial amplification of PTP genes are shown below. The cDNAs were prepared using the Gilbo BRL superscript preamplification system on RNAs purchased from Clontech.
The PTP1b cDNA was amplified from human placenta single strand cDNA (Clontech RNA) using the following oligonucleotides: 5′oligo: 5′-[…] (SEQ ID NO: 4) 3′oligo: 5′-[…] (SEQ ID NO: 5) It was subsequently ligated into pFasBac G2TBamH1Xba-1 sites.

[2] = target: T2, PTP MEG2 (Homo sapiens, UniProt P43378)
T2 construct: made in house; host or cells: E. coli BL-21 (pGEX 6P-1)
T2 sequence (P43378 262-593 limits assumed): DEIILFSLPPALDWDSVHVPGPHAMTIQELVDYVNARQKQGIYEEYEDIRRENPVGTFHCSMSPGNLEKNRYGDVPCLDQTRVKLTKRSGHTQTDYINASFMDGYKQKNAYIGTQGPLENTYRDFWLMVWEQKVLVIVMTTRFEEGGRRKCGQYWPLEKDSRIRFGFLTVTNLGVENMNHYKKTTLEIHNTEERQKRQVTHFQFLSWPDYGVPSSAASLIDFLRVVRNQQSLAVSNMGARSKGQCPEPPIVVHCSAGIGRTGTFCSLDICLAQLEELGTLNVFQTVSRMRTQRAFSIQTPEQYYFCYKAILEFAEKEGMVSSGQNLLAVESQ
Protocol: as §1, §2, §3, §4, §5, §6
The PTP MEG2 cDNA was amplified from human placenta single strand cDNA (Clontech RNA) using the following oligonucleotides: 5′oligo: 5′-[…]-3′ (SEQ ID NO: 8) 3′oligo: 5′-[…]-3′ (SEQ ID NO: 9) and subsequently ligated into pGex 6P-1 Eco RI/Xho I sites.

[3] = target: T3, PTP EPSILON (Homo sapiens, UniProt P23469)
T3 construct: made in house; host or cells: Sf-9 insect cells (pFastBac-G2T); a pGEX 6P-1 construct also existed
Protocol: as §1, §2, §3, §4, §5, §6
The PTPepsilon cDNA was amplified from human placenta single-strand cDNA (Clontech RNA) using the following oligonucleotides: 5′oligo: 5′-[…]-3′ (SEQ ID NO: 6) 3′oligo: 5′-[…]-3′ (SEQ ID NO: 7) After cloning this PCR product into the Bam HI/Xho I sites of pGEX 6P-1, this phosphatase was subcloned using the same restriction sites in pFastBac-G2T.

[4] = target: T4, PTP ALPHA (Homo sapiens, UniProt P18433); conditions: 25° C.
T4 construct: RTPα intracellular domain construct was obtained; made in house; host or cells: E. coli BL-21 (pGEX 3X)

[5] = pNPP or FDP as substrate, 25° C., read-out: PTP IC50 1B
[6] = pNPP or FDP as substrate, 25° C., read-out: PTP IC50 MEG2
[7] = pNPP or FDP as substrate, 25° C., read-out: PTP IC50 Epilson

T3 sequence (P23469 80-393 limits assumed): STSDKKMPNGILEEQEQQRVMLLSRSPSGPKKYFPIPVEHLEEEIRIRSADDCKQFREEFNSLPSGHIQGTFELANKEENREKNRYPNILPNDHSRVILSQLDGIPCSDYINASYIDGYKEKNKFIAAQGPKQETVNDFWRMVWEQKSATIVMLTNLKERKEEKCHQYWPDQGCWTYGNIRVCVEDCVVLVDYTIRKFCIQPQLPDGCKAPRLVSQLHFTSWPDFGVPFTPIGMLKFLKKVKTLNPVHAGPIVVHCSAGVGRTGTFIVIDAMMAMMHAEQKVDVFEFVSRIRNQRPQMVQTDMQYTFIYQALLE

Row | IC50 [1, 5] [µM] | IC50 [2, 6] [µM] | IC50 [3, 7] [µM] | IC50 [4] [µM] | IC50 ([1]; comparison of R groups, read-out: IC50 1B) [µM] | IC50 ([2]; comparison of R groups, read-out: IC50 MEG2) [µM] | IC50 ([3]; comparison of R groups, read-out: IC50 Epsilon) [µM] | SMILES | IC50 ([1]; PTP IC50 1B, pNPP or FDP as substrate, 25° C.) [µM] | IC50 ([2]; PTP IC50 MEG2, pNPP or FDP as substrate, 25° C.) [µM] | IC50 ([3]; PTP IC50 Epilson, pNPP or FDP as substrate, 25° C.) [µM]
1 | 35.4 | 68.3 | 26.1 | 19.3 |  |  |  | O=C(O)Cc1ccc(CC(=O)Nc2cccc(S(=O)(=O)C(F)(F)F)c2)cc1 [Example 29, {4-[(3-Trifluoromethanesulfonyl-phenylcarbamoyl)-methyl]-phenyl}-acetic acid] |  |  | 
2 | 6.2 | 9.6 | 1.8 | 6 |  |  |  | O=C(O)c1cc(Oc2ccc(S(=O)(=O)C(F)(F)F)cc2)cc(Oc2ccc(S(=O)(=O)C(F)(F)F)cc2)c1 [Example 31, 3,5-Bis-(4-trifluoromethanesulfonyl-phenoxy)-benzoic acid] |  |  | 
3 | 60.4 | > 100 | > 100 | > 100 |  |  |  | O=S(=O)(Nc1ccc(CCc2ccc(NS(=O)(=O)C(F)(F)F)cc2)cc1)C(F)(F)F [Example 66, 1,2-Bis(4-trifluoromethylsulfonamidophenyl)ethane] |  |  | 
4 | 35 | 85.7 | 50.8 | 53.6 |  |  |  | Cc1cc(NS(=O)(=O)C(F)(F)F)ccc1CCc1ccc(NS(=O)(=O)C(F)(F)F)cc1C [Example 67, 1,2-Bis(2-methyl-4-trifluoromethylsulfonamidophenyl)ethane] |  |  | 
5 | 44.6 | 34.4 | 37 | 27 |  |  |  | CC(C)(COc1ccc(NS(=O)(=O)C(F)(F)F)cc1)COc1ccc(NS(=O)(=O)C(F)(F)F)cc1 [Example 68, 1,3-Bis(4-trifluoromethylsulfonamidophenoxy)-2,2-dimethylpropane] |  |  | 
6 | 78.9 | > 100 | 40.7 | 31 |  |  |  | O=S(=O)(Nc1ccc(OCCCOc2ccc(NS(=O)(=O)C(F)(F)F)cc2)cc1)C(F)(F)F [Example 69, 1,3-Bis(4-trifluoromethylsulfonamidophenoxy)propane] |  |  | 
7 | 85 | 70.7 | 48.4 | 46 |  |  |  | O=S(=O)(Nc1ccc(OCCCCOc2ccc(NS(=O)(=O)C(F)(F)F)cc2)cc1)C(F)(F)F [Example 70, 1,4-Bis(4-trifluoromethylsulfonamidophenoxy)butane] |  |  | 
8 | 10.6 | 39.4 | 16.9 | 11.9 | 10.6 | 39.4 | 16.9 | O=S(=O)(Nc1ccc(Oc2ccc(Oc3ccc(NS(=O)(=O)C(F)(F)F)cc3)cc2)cc1)C(F)(F)F [Example 71, 1,4-Bis(4-trifluoromethylsulfonamidophenoxy)benzene] |  |  | 

Row | SMILES | IC50 [1, 5] [µM] | IC50 [2, 6] [µM] | IC50 [3, 7] [µM] | IC50 [4] [µM] | IC50 ([1]; comparison of R groups, read-out: IC50 1B) [µM] | IC50 ([2]; comparison of R groups, read-out: IC50 MEG2) [µM] | IC50 ([3]; comparison of R groups, read-out: IC50 Epsilon) [µM] | IC50 ([1]; PTP IC50 1B, pNPP or FDP as substrate, 25° C.) [µM] | IC50 ([2]; PTP IC50 MEG2, pNPP or FDP as substrate, 25° C.) [µM] | IC50 ([3]; PTP IC50 Epilson, pNPP or FDP as substrate, 25° C.) [µM]
9 | NC(=O)c1cc(Oc2ccc(S(=O)(=O)C(F)(F)F)cc2[N+](=O)[O-])cc(Oc2ccc(S(=O)(=O)C(F)(F)F)cc2[N+](=O)[O-])c1 [Example 30, 3,5-Bis-(2-nitro-4-trifluoromethanesulfonyl-phenoxy)-benzamide] |  |  |  | > 100 |  |  |  | > 100 | 64.3 | 4.3
